Legend:
Experiment in all cases: Test B pre-/postemergence plant response
Assay type in all cases: in vivo
[1] = test system: Russian thistle (Salsola iberica); settings: Preemergence
In short: (§1)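 Visual scoring from 0 (no effect) to 100 (complete control) against untreated controls was done 13 to 15 days after greenhouse treatment. Chemicals were formulated in a surfactant-containing non-phytotoxic solvent and applied to soil preemergence or to 1- to 4-leaf (2-18 cm) plants postemergence.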

[2] = test system: bermudagrass (Cynodon dactylon); settings: for Bermudagrass plant response rating: 8 g ai/ha
In short: as §1

[3] = test system: cocklebur (Xanthium strumarium); settings: for Cocklebur plant response rating: 8 g ai/ha
In short: as §1

corn (Zea mays) = settings: for Corn plant response rating: 8 g ai/ha
In short: as §1

[4] = test system: giant foxtail (Setaria faberii); settings: for Foxtail, Giant plant response rating: 8 g ai/ha
In short: as §1

[5] = test system: goosegrass (Eleusine indica); settings: for Goosegrass plant response rating: 8 g ai/ha
In short: as §1

[6] = test system: green foxtail (Setaria viridis); settings: for Foxtail, Green plant response rating: 8 g ai/ha
In short: as §1

kochia (Kochia scoparia) = test system: kochia (Kochia scoparia)
In short: as §1

[7] = test system: lambsquarters (Chenopodium album); settings: for Lambsquarters plant response rating: 8 g ai/ha
In short: as §1

soybean (Glycine max) = settings: for Plant response rating, Soybean: Postemergence
In short: as §1

[8] = test system: velvetleaf (Abutilon theophrasti); settings: for Velvetleaf plant response rating: 8 g ai/ha
In short: as §1

[9] = test system: wheat (Triticum aestivum); settings: for Wheat plant response rating: 8 g ai/ha
In short: as §1

[10] = test system: woolly cupgrass (Eriochloa villosa); settings: for Cupgrass, Woolly plant response rating: 8 g ai/ha
In short: as §1

[11] = test system: yellow nutsedge (Cyperus esculentus); settings: for Nutsedge, Yellow plant response rating: 8 g ai/ha
In short: as §1

[12] = Postemergence, 16 g ai/ha, scale 0 to 100
[13] = Postemergence, 31 g ai/ha, scale 0 to 100, 0 no effect, 100 complete control
[14] = Postemergence, 62 g ai/ha, scale 0 to 100
[15] = Preemergence, 16 g ai/ha, scale 0 to 100 (0 no effect, 100 complete control)
[16] = Preemergence, 31 g ai/ha, 0 to 100 scale, 0 no effect, 100 complete control
[17] = Preemergence, 62 g ai/ha, scale 0 to 100
[18] = 8 g ai/ha, postemergence, 0-100 scale

Compound: CCc1cc(-c2ccc(Cl)c(Cl)c2)nn1-c1c(O)cnn(C)c1=O [Compound 20]
- Plant response rating, Russian Thistle ([1]; 16 g ai/ha, scale 0 to 100 (0 no effect, 100 complete control)): 0
- Plant response rating, Russian Thistle ([1]; 31 g ai/ha, 0 to 100 scale, 0 no effect, 100 complete control): 0
- Plant response rating, Russian Thistle ([1]; 62 g ai/ha, scale 0 to 100): 0
- Bermudagrass plant response rating ([2]; postemergence, 0-100 scale): 0
- Plant response rating, Bermudagrass [2, 12]: 0
- Plant response rating, Bermudagrass [2, 13]: 0
- Plant response rating, Bermudagrass [2, 14]: 0
- Bermudagrass plant response rating ([2]; Preemergence, scale 0 to 100 (0 no effect, 100 complete control)): 0
- Plant response rating, Bermudagrass [2, 15]: 0
- Plant response rating, Bermudagrass [2, 16]: 0
- Plant response rating, Bermudagrass [2, 17]: 70
- Cocklebur plant response rating ([3]; postemergence, 0-100 scale): 0
- Plant response rating, Cocklebur [3, 12]: 0
- Plant response rating, Cocklebur [3, 13]: 0
- Plant response rating, Cocklebur [3, 14]: 0
- Plant response rating, Cocklebur [3, 15]: 0
- Plant response rating, Cocklebur [3, 16]: 0
- Plant response rating, Cocklebur [3, 17]: 0
- Cocklebur plant response rating ([3]; Preemergence, scale 0 to 100): 0
- Corn plant response rating (corn (Zea mays); postemergence, 0-100 scale): 0
- Plant response rating, Corn (corn (Zea mays); [12]): 90
- Plant response rating, Corn (corn (Zea mays); [13]): 95
- Plant response rating, Corn (corn (Zea mays); [15]): 5
- Plant response rating, Corn (corn (Zea mays); [16]): 80
- Plant response rating, Corn (corn (Zea mays); [17]): 95
- Corn plant response rating (corn (Zea mays); Preemergence, scale 0 to 100): 0
- Foxtail, Giant plant response rating ([4]; postemergence, 0-100 scale): 80
- Plant response rating, Foxtail, Giant [4, 12]: 90
- Plant response rating, Foxtail, Giant [4, 13]: 95
- Plant response rating, Foxtail, Giant [4, 14]: 95
- Plant response rating, Foxtail, Giant [4, 15]: 0
- Plant response rating, Foxtail, Giant [4, 16]: 50
- Plant response rating, Foxtail, Giant [4, 17]: 100
- Foxtail, Giant plant response rating ([4]; Preemergence, scale 0 to 100): 0
- Goosegrass plant response rating ([5]; postemergence, 0-100 scale): 5
- Plant response rating, Goosegrass [5, 12]: 20
- Plant response rating, Goosegrass [5, 13]: 65
- Plant response rating, Goosegrass [5, 14]: 80
- Plant response rating, Goosegrass [5, 15]: 0
- Plant response rating, Goosegrass [5, 17]: 70
- Goosegrass plant response rating ([5]; Preemergence, scale 0 to 100): 0
- Foxtail, Green plant response rating ([6]; postemergence, 0-100 scale): 20
- Plant response rating, Foxtail, Green [6, 12]: 60
- Plant response rating, Foxtail, Green [6, 13]: 85
- Plant response rating, Foxtail, Green [6, 14]: 95
- Plant response rating, Foxtail, Green [6, 15]: 95
- Plant response rating, Foxtail, Green [6, 16]: 100
- Plant response rating, Foxtail, Green [6, 17]: 100
- Foxtail, Green plant response rating ([6]; Preemergence, scale 0 to 100): 20
- Kochia plant response rating (kochia (Kochia scoparia); [18]): 0
- Plant response rating, Kochia (kochia (Kochia scoparia); [12]): 0
- Plant response rating, Kochia (kochia (Kochia scoparia); [13]): 0
- Plant response rating, Kochia (kochia (Kochia scoparia); [14]): 0
- Plant response rating, Kochia (kochia (Kochia scoparia); [15]): 0
- Plant response rating, Kochia (kochia (Kochia scoparia); [16]): 0
- Plant response rating, Kochia (kochia (Kochia scoparia); [17]): 0
- Lambsquarters plant response rating ([7]; postemergence, 0-100 scale): 0
- Plant response rating, Lambsquarters [7, 12]: 0
- Plant response rating, Lambsquarters [7, 13]: 0
- Plant response rating, Lambsquarters [7, 14]: 40
- Plant response rating, Lambsquarters [7, 15]: 20
- Plant response rating, Lambsquarters [7, 16]: 100
- Plant response rating, Lambsquarters [7, 17]: 100
- Lambsquarters plant response rating ([7]; Preemergence, scale 0 to 100): 0
- Soybean plant response rating (soybean (Glycine max); [18]): 0
- Plant response rating, Soybean (soybean (Glycine max); 16 g ai/ha, scale 0 to 100): 0
- Plant response rating, Soybean (soybean (Glycine max); 31 g ai/ha, scale 0 to 100, 0 no effect, 100 complete control): 0
- Plant response rating, Soybean (soybean (Glycine max); 62 g ai/ha, scale 0 to 100): 0
- Velvetleaf plant response rating ([8]; postemergence, 0-100 scale): 0
- Plant response rating, Velvetleaf [8, 12]: 0
- Plant response rating, Velvetleaf [8, 13]: 0
- Plant response rating, Velvetleaf [8, 14]: 0
- Plant response rating, Velvetleaf [8, 15]: 0
- Plant response rating, Velvetleaf [8, 16]: 0
- Plant response rating, Velvetleaf [8, 17]: 0
- Velvetleaf plant response rating ([8]; Preemergence, scale 0 to 100): 0
- Wheat plant response rating ([9]; postemergence, 0-100 scale): 0
- Plant response rating, Wheat [9, 12]: 20
- Plant response rating, Wheat [9, 13]: 20
- Plant response rating, Wheat [9, 14]: 60
- Plant response rating, Wheat [9, 15]: 0
- Plant response rating, Wheat [9, 16]: 0
- Plant response rating, Wheat [9, 17]: 0
- Wheat plant response rating ([9]; Preemergence, scale 0 to 100): 0
- Cupgrass, Woolly plant response rating ([10]; postemergence, 0-100 scale): 45
- Plant response rating, Cupgrass, Woolly [10, 12]: 90
- Plant response rating, Cupgrass, Woolly [10, 13]: 90
- Plant response rating, Cupgrass, Woolly [10, 14]: 100
- Plant response rating, Cupgrass, Woolly [10, 15]: 30
- Plant response rating, Cupgrass, Woolly [10, 16]: 50
- Plant response rating, Cupgrass, Woolly [10, 17]: 98
- Cupgrass, Woolly plant response rating ([10]; Preemergence, scale 0 to 100): 0
- Nutsedge, Yellow plant response rating ([11]; postemergence, 0-100 scale): 0
- Plant response rating, Nutsedge, Yellow [11, 12]: 0
- Plant response rating, Nutsedge, Yellow [11, 13]: 0
- Plant response rating, Nutsedge, Yellow [11, 14]: 0
- Plant response rating, Nutsedge, Yellow [11, 16]: 0
- Plant response rating, Nutsedge, Yellow [11, 17]: 0
- Nutsedge, Yellow plant response rating ([11]; Preemergence, scale 0 to 100): 0
